Test results taken from patent US20070219220A1, “Pyrazolopyrimidinethione Derivatives, Salts and Solvates Thereof, Preparation Methods and Use Thereof” (priority 2003, published 2007).
Where two headings read alike, the source gives them in different places. Marks after values point to notes of the source that are not given here.

Legend:
[1] = cited from earlier work
[2] = tested on: healthy mice; settings: within two hours, cited from earlier work
[3] = tested on: dog; settings: cited from earlier work
[4] = tested on: anesthetized dogs; experiment: Blood pressure, heart rate and respiration of anesthetized dogs (Example 11); format: in vivo; settings: for arterial blood pressure (systolic and diastolic), heart rate and respiration (frequency and depth), in words: oral 40 mg/kg, in 3 hours after administration
Method: Methods: eight healthy male dogs with the body weight ranging from 12-15 kg were used. The dogs were anesthetized with 30 mg/kg of sodium pentobarbital. The femoral artery was dissected and inserted with a blood pressure transducer to record the blood pressure. The limbs were pierced with electrodes for recording the electrocardiogram. The respiration belt was wrapped around their chest and the respiration rate was recorded. The apparatus used was RM-6000 Polygraph system (NIHON KOHDEN, Japan). The changes in the arterial blood pressure, the heart rate, and the respiration were observed after the test compound was introduced into the stomach of the anesthetized dogs via 14# catheter.

[5] = tested on: rats with testis removed; experiment: Penile erection caused by stimulating electric current in rats with testes removed (Example 7); format: in vivo, wistar rats; settings: for penile swelling time (in words) / latent period of the penile erection (in words): compared with control; for latent period of the penile erection (in words): P<0.001; for Latent period / Swelling time: stimulation 35 min after administration
Description: Methods: Forty healthy adult male wistar rats were used in the study, with the body weight ranging from 230 g to 250 g. The rats were anesthetized with sodium pentobarbital, and their testes were squeezed into the scrotum. After sterilization, the scrotum was dissected with an operation knife. The testes and epididymis were taken out respectively and then ligated. The wound were sutured and 100,000 unit of penicillin was administrated to each rat for three consecutive days. After breeding for one week, the rats were used for the tests. The animals may be used repeatedly and the interval between any two of the tests was one week. […] Sildenafil at the dose of 50 mg/kg was used as the positive control. The control group is (1% sodium carboxymethyl cellulose). In 35 min after the administration, the penis of the rats was stimulated with SEN-3201 stimulator (NIHON KOHDEN, Japan), with the following parameters: the stimulating voltage of 10V, the time interval (T1) of 250 msec, the deferment time (T2) of 10 msec, the duration (T3) of 500 μsec, and the stimulation rank (n) of 25. At the same time, the latent period (sec) of the penile erection and the penile swelling time (min) were recorded with a three-channel stop-watch.

[6] = tested on: mice with testis removed; experiment: Sexual function (back climbing) of testis-removed mice (Example 10); format: in vivo, KM mice; settings: for Incidence: back climbing within 2 hours after administration; for Times of back climbing / Number of the animals who performed back climbing: within 2 hours after administration; for Number of the animals who performed back climbing: 10 male mice
Description: Methods: Forty healthy KM male mice with the body weight ranging from 28-32 g and forty healthy KM female mice with body weight ranging from 24-28 g were used. Each male mouse was anesthetized with sodium pentobarbital, and the testes were squeezed into the scrotum. After sterilization, the scrotum was dissected with an operating knife. The testes and epididymis were respectively taken out, and then ligated. The wound were sutured and each of the mice was administrated with 100,000 units of penicillin for three consecutive days. After being bred for one week, the mice were used for the tests. The animals may be employed repeatedly and the interval between any two tests was 72 hours. To the mice, the following compounds were orally administered: compound (1), compound (2), compound (3), and compound (4), each at the dose of 80 mg/kg and 40 mg/kg, respectively. The positive control agent was Sildenafil, at the dose of 80 mg/kg. The control group was given with 1% of sodium carboxymethyl cellulose. At 30 min after the administration, the male mice who had taken the above agents were put into the cages of female mice, with the male-to-female rate of 1:1. There were three males and three females in each cage. The times of back climbing on the female mice performed by the male mice, and the percentage of occurrence were observed within 2 hours after the administration.

[7] = Preliminary acute toxicity, Bliss method (Example 13); settings: rat, in vivo, oral and intragastric administration, rats
Method: Experimental methods: the toxicity test was conducted by oral and intragastric administration of the pyrazolopyrimidinethione derivatives of the invention using the Bliss method.

[8] = tested on: anesthetized rats; experiment: Blood pressure and heart rate of anesthetized rats (Example 12); format: in vivo, wistar rats
Method: Forty male wistar rats with the body weight ranging from 220-240 g were used in the study. Pharmaceuticals: compound (2) and Sildenafil, which were ground and then suspended with 1% of sodium carboxymethyl cellulose. Apparatus: RM-6000 eight-graph system (NIHON KOHDEN, Japan). The doses for administration and the division of the groups: solvent control group (abbreviated as the control group), 20 mg/kg of compound (2), 40 mg/kg of compound (2), 80 mg/kg of compound (2), and 50 mg/kg of Sildenafil. The administration route is through dodecadactylon. Methods: the male wistar rats were taken out and anesthetized with 35 mg/kg of sodium pentobarbital by injecting into the abdominal cavity, on the basis of their body weight. The rats were fixed on the operation table and were performed with the dissection operation of right carotid artery. The catheter with an external diameter of 1 mm was inserted into the right carotid artery. The blood pressure was measured and the electrodes positioned on the skin of the four limbs were used to record the electrocardiogram limb lead II. The catheter with an external diameter of 2 mm was inserted into the dodecadactylon via incision of the epigastric region, for the administration of the pharmaceuticals. RM-6000 eight-graph system (NIHON KOHDEN, Japan) was employed to record. Observation time: the value before administration, the values at 15, 30, 60, 120 and 180 min after the administration.

[9] = tested on: rats with testis removed; experiment: Duration of penile erection in rats with testis removed (Example 8); format: in vivo, wistar rats; settings: oral 50 mg/kg
[10] = prior-art filings, background section
[11] = 50 mg/kg through dodecadactylon, at 15 min after administration
[12] = 50 mg/kg through dodecadactylon, at 30 min after administration
[13] = 50 mg/kg through dodecadactylon, at 60 min after administration
[14] = 50 mg/kg through dodecadactylon, at 120 min after administration
[15] = 50 mg/kg through dodecadactylon, value before administration

In the case of `CCCc1nn(C)c2c(=O)[nH]c(-c3cc(S(=O)(=O)N4C[C@@H](C)N[C@@H](C)C4)ccc3OCC)nc12` [5-[2-ethoxy-5-(cis-3,5-dimethylpiperazin-1-sulfonyl)phenyl]-1-methyl-3-n-propyl-1,6-dihydro-7H-pyrazolo[4,3d]pyrimidin-7-one], the LD50 [1, 10] is listed as 772.5 to 1052.1 mg/kg.

For `CCCc1nn(CC)c2c(=O)[nH]c(-c3cc(S(=O)(=O)N4C[C@@H](C)N[C@@H](C)C4)ccc3OCC)nc12` [5-[2-ethoxy-5-(cis-3,5-dimethylpiperazine-1-sulfonyl)phenyl]-1-ethyl-3-n-propyl-1,6-dihydro-7H-pyrazolopyrimidin-7-one], the “occurrences of back climbing” value ([2]; oral 15 mg/kg) is listed as 56.6%, the “times of back climbing on the female mice performed by the male mice” value (“times of back climbing … by the male mice” below) ([2]; oral 15 mg/kg) is listed as 43 and the “occurrences of back climbing” value ([2]; oral 30 mg/kg) is listed as 62.5%. For the same compound, the “times of back climbing … by the male mice” value ([2]; oral 30 mg/kg) was 53, the LD50 [1, 10] was “greater than 2000 mg/kg” and the “diastolic pressure and heart rate (in words)” value [3] was “dramatically decrease diastolic pressure and increase heart rate”.

For `CCCc1nn(CC)c2c(=S)[nH]c(-c3cc(S(=O)(=O)N4C[C@@H](C)N[C@@H](C)C4)ccc3OCC)nc12` [Compound (1), 5-[2-ethoxy-5-(cis-3,5-dimethylpiperazin-1-sulfonyl)phenyl]-1-ethyl-3-n-propyl-1,6-dihydro-7H-pyrazolo[4,3-d]pyrimidin-7-thione], the “arterial blood pressure (systolic and diastolic), heart rate and respiration (frequency and depth), in words” value (shortened to “arterial blood pressure”) [4] was “did not experience an evident change”, the “penile swelling time (in words)” value [5] was “lengthened” and the “latent period of the penile erection (in words)” value (shortened to “latent period … (in words)”) [5] was “evidently shortened”. For the same compound, the “penile swelling time compared with positive control sildenafil (in words)” value ([5]; compared with sildenafil 50 mg/kg) was “more evident”, the Latent period ([5]; oral 20 mg/kg) was 28.8 ± 1.7 s and the Swelling time ([5]; oral 20 mg/kg) was 1305.1 ± 588.8 s. The Latent period ([5]; oral 40 mg/kg) was 29.5 ± 4.2 s, the Swelling time ([5]; oral 40 mg/kg) was 2943.1 ± 552.9 s and the Incidence ([6]; oral 40 mg/kg) was 30%. For the same compound, the “Times of back climbing” value ([6]; oral 40 mg/kg) was 4, the “Number of the animals who performed back climbing” value (from here on “Number”) ([6]; oral 40 mg/kg) was 3 and the Incidence ([6]; oral 80 mg/kg) was 40%. For the same compound, the “Times of back climbing” value ([6]; oral 80 mg/kg) was 7*, the “Number” value ([6]; oral 80 mg/kg) was 4 and the LD50 [7] was > 3000 mg/kg.

In the case of `CCCc1nn(C)c2c(=S)[nH]c(-c3cc(S(=O)(=O)N4C[C@@H](C)N[C@@H](C)C4)ccc3OC)nc12` [Compound (3), 5-[2-methoxy-5-(cis-3,5-dimethylpiperazin-1-sulfonyl)phenyl]-1-methyl-3-n-propyl-1,6-dihydro-7H-pyrazolo[4,3-d]pyrimidin-7-thione], the “arterial blood pressure” value [4] is reported as “did not experience an evident change”, the “penile swelling time (in words)” value [5] is reported as “lengthened” and the “latent period … (in words)” value [5] is reported as “evidently shortened”. It also gave a Latent period ([5]; oral 20 mg/kg) of 32.8 ± 4.4 s, a Swelling time ([5]; oral 20 mg/kg) of 551.8 ± 350.8 s and a Latent period ([5]; oral 40 mg/kg) of 30.4 ± 2.6 s. For the same compound, the Swelling time ([5]; oral 40 mg/kg) was 809.6 ± 247.5 s, the Incidence ([6]; oral 40 mg/kg) was 20% and the “Times of back climbing” value ([6]; oral 40 mg/kg) was 2. For the same compound, the “Number” value ([6]; oral 40 mg/kg) was 2, the Incidence ([6]; oral 80 mg/kg) was 30% and the “Times of back climbing” value ([6]; oral 80 mg/kg) was 4. The “Number” value ([6]; oral 80 mg/kg) was 3 and the LD50 [7] was 2500 mg/kg.

With `CCCOc1ccc(S(=O)(=O)N2C[C@@H](C)N[C@@H](C)C2)cc1-c1nc2c(CCC)nn(C)c2c(=S)[nH]1` [Compound (4), 5-[2-propoxy-5-(cis-3,5-dimethylpiperazin-1-sulfonyl)phenyl]-1-methyl-3-n-propyl-1,6-dihydro-7H-pyrazolo[4,3-d]pyrimidin-7-thione] the “arterial blood pressure” value [4] was “did not experience an evident change”, the “penile swelling time (in words)” value [5] was “lengthened” and the “latent period … (in words)” value [5] was “evidently shortened”. The Incidence ([6]; oral 40 mg/kg) was 20%, the “Times of back climbing” value ([6]; oral 40 mg/kg) was 3 and the “Number” value ([6]; oral 40 mg/kg) was 2. For the same compound, the Incidence ([6]; oral 80 mg/kg) was 30%, the “Times of back climbing” value ([6]; oral 80 mg/kg) was 5 and the “Number” value ([6]; oral 80 mg/kg) was 3. For the same compound, the LD50 [7] was > 3000 mg/kg.

For `CCCc1nn(C)c2c(=O)[nH]c(-c3cc(S(=O)(=O)N4CCN(C)CC4)ccc3OCC)nc12` [Sildenafil, reference compound], the “blood pressure (in words)” value ([4]; Sildenafil 40 mg/kg, mainly diastolic pressure) is given as “apparent effect of decreasing the blood pressure”, the “occurrences of back climbing” value ([2]; oral 50 mg/kg) is given as 50% and the “times of back climbing … by the male mice” value ([2]; oral 50 mg/kg) is given as 19. The LD50 ([1]; as reported in Chinese Journal of Clinical Pharmacology and Therapeutics (1999, 4(3): 237-240)) was 635 mg/kg, the LD50 [1, 10] was 635 mg/kg and the “blood pressure (in words)” value ([8]; 50 mg/kg through dodecadactylon) was “began to decrease at 15 min after the administration”. For the same compound, the Heart rate [8, 11] was 445 ± 29.7 times/min, the Systolic pressure [8, 11] was 90 ± 29.7 mmHg and the diastolic pressure [8, 11] was 68 ± 29.7 mmHg. The Heart rate [8, 12] was 444 ± 29.6 times/min, the Systolic pressure [8, 12] was 90 ± 29.6 mmHg and the diastolic pressure [8, 12] was 70 ± 29.6 mmHg. It also gave a Heart rate [8, 13] of 437 ± 22.8 times/min, a Systolic pressure [8, 13] of 88 ± 22.9 mmHg and a diastolic pressure [8, 13] of 68 ± 22.9 mmHg. The Heart rate [8, 14] was 439 ± 22.6 times/min, the Systolic pressure [8, 14] was 93 ± 22.6 mmHg and the diastolic pressure [8, 14] was 71 ± 22.6 mmHg. The Heart rate ([8]; 50 mg/kg through dodecadactylon, before administration) was 429 ± 26.1 times/min, the Systolic pressure [8, 15] was 120 ± 10.6 mmHg and the diastolic pressure [8, 15] was 98 ± 16.0 mmHg. For the same compound, the “effect on the heart rate (in words)” value ([8]; 50 mg/kg, at 15 and 30 minutes after administration) was “increasing the heart rate”, the Latent period ([5]; oral 50 mg/kg) was 28.9 ± 1.7 s and the Swelling time ([5]; oral 50 mg/kg) was 2272.5 ± 326.2 s. For the same compound, the Incidence ([6]; oral 80 mg/kg) was 70%, the “Number” value ([6]; oral 80 mg/kg) was 6* and the “how long the penile swelling effect lasts after administration” value [9] was “about 1 hour”. The Penile swelling time ([9]; at 1 h after administration) was 1067.0 ± 204.5 s, the Penile swelling time ([9]; at 3 h after administration) was 44.0 ± 11.3 s and the “penile swelling time compared with control group (in words)” value ([9]; at 3 hr after the administration) was “shorter than that of the control group”. It also gave a Penile swelling time ([9]; at 6 h after administration) of 38.8 ± 5.6 s, a Penile swelling time ([9]; at 24 h after administration) of 61.0 ± 8.7 s and a Penile swelling time ([9]; value before administration) of 62.8 ± 7.7 s.
